Measurements taken from patent publication US20230241030A1, “MACROGOL 15 HYDROXYSTEARATE FORMULATIONS” (Allergan, Inc., priority 2011, published 2023).
Converted amounts (≈) assume the structure as drawn. Like-named read-outs stand apart in the source and are kept apart here. One block for each compound: values may come before it.

Key:
Type in all cases: physicochemical
[1] = Stability of Cmpd 1 in formulations, impurities by percent area LC; details: macrogol 15 hydroxystearate vs PS80 formulation of Table 3; 25° C. and 40° C. storage; FIGS. 2A-D
Description: FIGS. 2A-D: Stability results for Cmpd 1 in formulations containing either polysorbate 80 (PS80) or macrogol 15 hydroxystearate (Sol-2) as solubilizer as shown in Table 3. See Examples. […] Impurity amounts were calculated by percent area by liquid chromatography (LC). FIG. 2A: 25° C. storage, total impurities. FIG. 2B: 25° C. storage, major degradation product. FIG. 2C: 40° C. storage, total impurities. FIG. 2D: 40° C. storage, major degradation product. Legend: as in FIG. 1.

[2] = Solubility in formulation vehicles with different solubilizers; details: for Solubility in vehicle containing Solutol 15 HS compared to polyoxyethylated surfactants: comparison in words; for solubility at 8 weeks: read-out: Solubility (mg/ml) measured after 8 weeks
Source text: Table 1 summarizes solubility of Cmpd 1 in vehicles with 4 different solubilizers over a range of temperatures.

[3] = Stability of Cmpd 2 in formulations, percent remaining by LC
Description: FIG. 1. See Examples. Samples were stored at 25° C. Axes: x-axis (time, months); y-axis (stability of Cmpd 2 as measured by percent remaining by liquid chromatography, LC). Legend: macrogol 15 hydroxystearate (box); polysorbate 80 (diamond).
See Examples. […] Axes: x-axis (time, months); y-axis (stability of Cmpd 2 as measured by percent remaining by liquid chromatography, LC). Legend Formulation PSI, storage 40° C./20% RH, % remaining by LC (Diamond); Formulation Sol1, storage 40° C./20% RH, % remaining by LC (Square); Formulation PSI, storage 25° C./40% RH, % remaining by LC (Triangle); Formulation Sol1, storage 25° C./40% RH, % remaining by LC (cross); Formulation PSI, storage 5° C., % remaining by LC (Asterix); Formulation Sol1, storage 5° C., % remaining by LC (circle).
Axes: x-axis (time, months); y-axis (stability of Cmpd 2 as measured by percent remaining by liquid chromatography, LC). Legend Formulation #2, storage 5°, % remaining by LC (Diamond); Formulation #2, storage 25° C./40% RH, % remaining by LC (Square); Formulation #2, storage 30° C./60% RH, % remaining by LC (Triangle); Formulation #5, storage 5° C., % remaining by LC (cross); Formulation #5, storage 25° C./40% RH, % remaining by LC (Asterix); Formulation #5, storage 30° C./60% RH, % remaining by LC (circle).

[4] = Cmpd 4 solubility in Solutol HS 15 vehicles

solubility at 8 weeks ([2]; formulation vehicle with 1% POE 40 Stearate, aqueous with cosolvent or surfactant or cyclodextrin, vehicle with 1% POE 40 Stearate, 5 °C): 1.27 mg/mL (≈ 2680 µM)
solubility at 8 weeks ([2]; formulation vehicle with 1% POE 40 Stearate, aqueous with cosolvent or surfactant or cyclodextrin, vehicle with 1% POE 40 Stearate, 25 °C): 1.21 mg/mL (≈ 2560 µM)
solubility at 8 weeks ([2]; formulation vehicle with 1% POE 40 Stearate, aqueous with cosolvent or surfactant or cyclodextrin, vehicle with 1% POE 40 Stearate, 40 °C): 1.15 mg/mL (≈ 2430 µM)
solubility at 8 weeks ([2]; formulation vehicle with 1% Polysorbate 20, aqueous with cosolvent or surfactant or cyclodextrin, vehicle with 1% Polysorbate 20, 5 °C): 1.24 mg/mL (≈ 2620 µM)
solubility at 8 weeks ([2]; formulation vehicle with 1% Polysorbate 20, aqueous with cosolvent or surfactant or cyclodextrin, vehicle with 1% Polysorbate 20, 25 °C): 1.18 mg/mL (≈ 2490 µM)
solubility at 8 weeks ([2]; formulation vehicle with 1% Polysorbate 20, aqueous with cosolvent or surfactant or cyclodextrin, vehicle with 1% Polysorbate 20, 40 °C): 1.05 mg/mL (≈ 2220 µM)
solubility at 8 weeks ([2]; formulation vehicle with 1% Polysorbate 80, aqueous with cosolvent or surfactant or cyclodextrin, vehicle with 1% Polysorbate 80, 5 °C): 1.68 mg/mL (≈ 3540 µM)
solubility at 8 weeks ([2]; formulation vehicle with 1% Polysorbate 80, aqueous with cosolvent or surfactant or cyclodextrin, vehicle with 1% Polysorbate 80, 25 °C): 1.52 mg/mL (≈ 3220 µM)
solubility at 8 weeks ([2]; formulation vehicle with 1% Polysorbate 80, aqueous with cosolvent or surfactant or cyclodextrin, vehicle with 1% Polysorbate 80, 40 °C): 1.46 mg/mL (≈ 3080 µM)
solubility at 8 weeks ([2]; formulation vehicle with 1% Solutol HS 15, aqueous with cosolvent or surfactant or cyclodextrin, vehicle with 1% Solutol HS 15, 5 °C): 1.5 mg/mL (≈ 3170 µM)
solubility at 8 weeks ([2]; formulation vehicle with 1% Solutol HS 15, aqueous with cosolvent or surfactant or cyclodextrin, vehicle with 1% Solutol HS 15, 25 °C): 1.32 mg/mL (≈ 2790 µM)
solubility at 8 weeks ([2]; formulation vehicle with 1% Solutol HS 15, aqueous with cosolvent or surfactant or cyclodextrin, vehicle with 1% Solutol HS 15, 40 °C): 1.24 mg/mL (≈ 2610 µM)
SMILES: CCCCC[C@H](O)c1ccc(N2C(=O)CC[C@@H]2COCc2ccc(C(=O)OC(C)C)s2)cc1 [Cmpd 1, isopropyl 5-((((R)-1-(4-((S)-1-hydroxyhexyl)phenyl)-5-oxopyrrolidin-2-yl)methoxy)methyl)thiophene-2-carboxylate]
Oxidative degradation (total impurities, major degradation product) [1]: prevent oxidative degradation seen in PS80 containing formulations
Solubility in vehicle containing Solutol 15 HS compared to polyoxyethylated surfactants [2]: higher than that containing POE40 stearate or polysorbate 20, but slightly lower than that containing Polysorbate 80

SMILES: CCCCC[C@H](O)c1ccc(N2C(=O)CC[C@@H]2CCCc2ccc(C(=O)OC(C)C)s2)cc1 [Cmpd 2, isopropyl 5-(3-((S)-1-(4-((S)-1-hydroxyhexyl)phenyl)-5-oxopyrrolidin-2-yl)propyl)thiophene-2-carboxylate]
Degradation (percent remaining by LC) ([3]; macrogol 15 hydroxystearate (#2) vs PS80 (#5) formulation of Table 8, 5° C., 25° C./40% RH, 30° C./60% RH, FIG. 4): prevent degradation seen in PS80 containing formulations at all storage conditions
Degradation (percent remaining by LC) ([3]; macrogol 15 hydroxystearate vs PS80 formulation of Table 7, 40° C./20% RH storage, FIG. 3): prevent degradation seen in PS80 containing formulations
Solubility in vehicle containing Solutol 15 HS compared to polyoxyethylated surfactants [2]: comparable or better solubility

Cmpd 4 Solubility (% w/w) <mixing overnights (>24 hr) at ambient room temperature> ([4]; 0.1% Solutol HS 15, adjusted to pH 5.5, final pH 5.9 post-filtration): 0.07 % w/w
Cmpd 4 Solubility (% w/w) <mixing overnights (>24 hr) at ambient room temperature> ([4]; 0.1% Solutol HS 15, adjusted to pH 6.5, final pH 6.7 post-filtration): 0.02 % w/w
Cmpd 4 Solubility (% w/w) <mixing overnights (>24 hr) at ambient room temperature> ([4]; 0.5% Solutol HS 15, adjusted to pH 5.5, final pH 6.1 post-filtration): 0.11 % w/w
Cmpd 4 Solubility (% w/w) <mixing overnights (>24 hr) at ambient room temperature> ([4]; 0.5% Solutol HS 15, adjusted to pH 6.5, final pH 6.8 post-filtration): 0.06 % w/w
Cmpd 4 Solubility (% w/w) <mixing overnights (>24 hr) at ambient room temperature> ([4]; 1.0% Solutol HS 15, adjusted to pH 5.5, final pH 6.1 post-filtration): 0.16 % w/w
Cmpd 4 Solubility (% w/w) <mixing overnights (>24 hr) at ambient room temperature> ([4]; 1.0% Solutol HS 15, adjusted to pH 6.5, final pH 6.8 post-filtration): 0.10 % w/w
SMILES: Cc1c(COC(=O)C(C)(C)C)cccc1[C@H](C)c1c[nH]cn1 [Cmpd 4, 3-[(1S)-1-(1H-imidazol-4-yl)ethyl]-2-methylbenzyl pivalate]
